For the series, the system named is TCL1 CLL cells (CD5+CD19+), T and B lymphocytes. The series is described as follows: TCL1 transgenic CLL mice, oral LDC526, longitudinal blood and final spleen analysis. Type of series: in vivo, mouse. An excerpt:
Another widely used preclinical CLL model are TCL1 transgenic mice. The TCL1 transgenics represent a constitutive CLL model not involving the adoptive transfer of cells. This model mirrors the natural course of human IgVH-unmutated CLL including its disease progression. In addition, this model has also been widely used by others to test novel therapeutic molecules. […] Consecutive blood sampling allowed us to carry out a longitudinal study in individual TCL1 and control mice. For this, we chose a cohort of TCL1 and littermate control mice, which were 9-12 months old (Figure 5A). We chose TCL1 transgenics with high peripheral CLL cell (CD19+CD5+) counts (14.6±7.4/nl, mean±SEM). Given the presumably high leukemic burden in these aged TCL1 mice and the reduced general condition of some NSG mice receiving 75 mg/kg for 5 days we decided to dose TCL1 mice with 50 mg/kg daily for two consecutive days (Figure 5A). As the experiment was longitudinally designed and there was no effect expected of administering carrier to wild-type control mice we omitted this control group and established three experimental groups (Figure 5A). In order to minimize stress by collecting blood specimens we sampled blood three times, 8 days apart (days -5, +3 and +11; Figure 5A). Compared to blood smears prepared before commencing LDC526 treatment a marked decrease of peripheral blood leukocytes and CLL cells was observed two days post the last LDC526 administration to TCL1 transgenic mice (Figure 5B). In contrast to the carrier control treated TCL1 mice, white blood cell counts (WBC) dropped in LDC526-treated wild-type and TCL1 mice (Figure 5C). In comparison to wild-type control mice, where WBC dropped to 34% of baseline values, the WBC decrease in TCL1 mice was more dramatic dropping to 8% of baseline values (Figure 5D).
All mice were bred and housed at the University Hospital Essen animal care facility. TCL1 mice were back-crossed more than 6 generations into the C57BL/6 background and were genotyped as previously described. Age-matched TCL1 wild-type littermates served as controls. Peripheral blood counts were determined with the VetABC analyzer (scil, Viernheim, Germany). Blood smears were Wright-Giemsa stained. For the human CLL xenograft experiments eight to 14-week-old NOD.Cg-Prkdc^scid Il2rg^tm1Wjl/SzJ (NOD/scid/γc^null; NSG) mice were sublethally irradiated (3.25 Gy) 24 hours before transplantation. Freshly isolated 1.0 x 10^8 PBMC suspended in 0.2 ml of RPMI were intravenously transplanted as previously described. For oral administration, LDC526 was diluted in polyethelene glycol (PEG Mn 400, Sigma-Aldrich) and administerd by gavage. Animal experiments were performed in accordance with institutional guidelines approved by the Animal Care Committee of the University Hospital Essen.
LDC526 [(3-((4-(4-fluoro-2-methoxyphenyl)-1,3,5-triazin-2-yl)amino)phenyl)methane-sulfonamide, molecular weight 389,41 g/mol, Figure 1A] was provided as powder (LDC526 synthesis, supplementary methods). For oral gavage administration LDC526 was diluted in polyethelene glycol (PEG Mn 400, Sigma-Aldrich, Munich, Germany) followed by sonication for 3 x 5 minutes with intermediate mixing.
Apoptosis and cell death were determined by using Annexin V (BD Biosciences, Heidelberg, Germany) and 4′,6-Diamidin-2-phenylindol (DAPI, Sigma-Aldrich) staining. Erythrocytes of murine peripheral blood samples were lysed with NH4Cl hypotonic solution. Single cell suspensions of murine spleens were prepared as previously described. Murine cells were stained with antibodies directed against murine CD3 (clone 145-2C11), CD5 (53-7.3) and CD19 (1D3), respectively. For the detection of human cells in NSG spleens antibodies against human CD3 (clone SK7), CD4 (SK3), CD5 (L17F12), CD8 (SK1), CD19 (J3-119 or SJ25C1) and CD45 (2D1) were used (purchased from BD Bioscience, Biolegend and Beckman Coulter). […]

For `COc1cc(F)ccc1-c1ncnc(Nc2cccc(CS(N)(=O)=O)c2)n1` [LDC526, (3-((4-(4-fluoro-2-methoxyphenyl)-1,3,5-triazin-2-yl)amino)phenyl)methane-sulfonamide], the “decrease of peripheral blood CLL counts of individual TCL1 mice” value (50 mg/kg for two days) is given as “at least 8 fold”. For the same compound, under “50 mg/kg for two days, day +3”, the “decrease of TCL1 blood T cells” value is given as 6 fold and the “decrease of mean TCL1 blood CLL numbers compared to baseline” value is recorded as 16 fold. In addition, under “LDC526-treated mice, longitudinal”, the hemoglobin counts result is “did not change significantly”. Also, the “increase of peripheral blood CLL numbers on day +11 compared to day +3” value (TCL1 mice) is 29%. In addition, under “TCL1 mice after LDC526 treatment”, the “mean platelet concentrations, percent of baseline levels” value was not below 50%. In addition, where the note is “TCL1 mice, 50 mg/kg daily for two days, day +3”, the “WBC, percent of baseline values” is given as 8%. In addition, the “drop of mean WBC” value (TCL1 mice, 50 mg/kg for two days) is recorded as 12 fold. The “non-malignant B cell numbers, percent of baseline values” (TCL1 mice, peripheral blood) amounted to 1.4%. For the same compound, under “day +3”, the “peripheral blood TCL1 CLL cells, percent of baseline levels” value worked out at 6.4%. Where the note is “day +11”, the “splenic weights versus carrier control TCL1 mice” value is “significantly lower”.

Source of the values: article PMC5995184, “Potent anti-leukemic activity of a specific cyclin-dependent kinase 9 inhibitor in mouse models of chronic lymphocytic leukemia” (Oncotarget, 2018).
